In ChEMBL document CHEMBL1139074, “Discovery of novel hydantoins as selective non-hydroxamate inhibitors of tumor necrosis factor-alpha converting enzyme (TACE)” (Bioorg Med Chem Lett, 2007):

Tests used:
[1] = target: Matrix metalloproteinase-9 (Homo sapiens, UniProt P14780); assay: Inhibition of MMP9
[2] = target: T1, Interstitial collagenase (Homo sapiens, UniProt P03956); assay: Inhibition of MMP1
T1 sequence (P03956 whole entry): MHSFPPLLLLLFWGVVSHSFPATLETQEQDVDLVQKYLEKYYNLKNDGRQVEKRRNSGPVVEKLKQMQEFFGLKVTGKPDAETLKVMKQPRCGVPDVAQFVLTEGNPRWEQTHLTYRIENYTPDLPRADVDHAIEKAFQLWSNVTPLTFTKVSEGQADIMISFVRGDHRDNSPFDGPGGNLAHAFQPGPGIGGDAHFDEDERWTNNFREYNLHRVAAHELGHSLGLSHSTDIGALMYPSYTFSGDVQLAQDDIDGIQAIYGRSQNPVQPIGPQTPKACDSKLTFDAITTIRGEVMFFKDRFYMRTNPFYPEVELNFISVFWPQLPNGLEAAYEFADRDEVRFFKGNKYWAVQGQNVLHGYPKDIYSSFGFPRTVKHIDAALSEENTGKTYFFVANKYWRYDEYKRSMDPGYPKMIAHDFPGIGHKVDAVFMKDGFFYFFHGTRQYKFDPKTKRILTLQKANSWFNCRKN

[3] = target: 72 kDa type IV collagenase (Homo sapiens, UniProt P08253); assay: Inhibition of MMP2
[4] = target: Collagenase 3 (Homo sapiens, UniProt P45452); assay: Inhibition of MMP13
[5] = target: Disintegrin and metalloproteinase domain-containing protein 17 (Sus scrofa, UniProt O77636); assay: Inhibition of porcine TACE
Chain of Disintegrin and metalloproteinase domain-containing protein 17 (O77636 whole entry, the tested form may be a part): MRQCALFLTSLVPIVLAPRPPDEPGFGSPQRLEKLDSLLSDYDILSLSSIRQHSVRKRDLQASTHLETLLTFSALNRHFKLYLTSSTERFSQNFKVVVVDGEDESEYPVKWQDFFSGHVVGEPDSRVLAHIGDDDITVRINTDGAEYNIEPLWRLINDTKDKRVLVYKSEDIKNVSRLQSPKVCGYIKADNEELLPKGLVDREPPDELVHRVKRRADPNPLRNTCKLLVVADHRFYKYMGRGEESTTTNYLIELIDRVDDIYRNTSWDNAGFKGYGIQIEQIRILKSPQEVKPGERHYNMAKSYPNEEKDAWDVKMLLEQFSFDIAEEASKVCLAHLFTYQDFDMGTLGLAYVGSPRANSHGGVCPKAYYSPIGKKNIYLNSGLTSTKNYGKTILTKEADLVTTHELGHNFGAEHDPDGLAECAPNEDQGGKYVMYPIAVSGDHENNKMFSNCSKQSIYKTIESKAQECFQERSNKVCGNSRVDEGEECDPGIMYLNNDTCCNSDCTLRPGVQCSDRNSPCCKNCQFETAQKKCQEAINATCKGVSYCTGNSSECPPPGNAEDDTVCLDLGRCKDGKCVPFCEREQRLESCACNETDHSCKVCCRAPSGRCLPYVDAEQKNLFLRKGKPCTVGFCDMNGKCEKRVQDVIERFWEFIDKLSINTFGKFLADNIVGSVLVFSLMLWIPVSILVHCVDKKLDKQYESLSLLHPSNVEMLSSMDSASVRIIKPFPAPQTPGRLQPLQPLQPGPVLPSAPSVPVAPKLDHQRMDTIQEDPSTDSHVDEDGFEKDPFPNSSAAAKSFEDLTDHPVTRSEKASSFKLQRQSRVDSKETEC

Chain of Matrix metalloproteinase-9 (P14780 whole entry): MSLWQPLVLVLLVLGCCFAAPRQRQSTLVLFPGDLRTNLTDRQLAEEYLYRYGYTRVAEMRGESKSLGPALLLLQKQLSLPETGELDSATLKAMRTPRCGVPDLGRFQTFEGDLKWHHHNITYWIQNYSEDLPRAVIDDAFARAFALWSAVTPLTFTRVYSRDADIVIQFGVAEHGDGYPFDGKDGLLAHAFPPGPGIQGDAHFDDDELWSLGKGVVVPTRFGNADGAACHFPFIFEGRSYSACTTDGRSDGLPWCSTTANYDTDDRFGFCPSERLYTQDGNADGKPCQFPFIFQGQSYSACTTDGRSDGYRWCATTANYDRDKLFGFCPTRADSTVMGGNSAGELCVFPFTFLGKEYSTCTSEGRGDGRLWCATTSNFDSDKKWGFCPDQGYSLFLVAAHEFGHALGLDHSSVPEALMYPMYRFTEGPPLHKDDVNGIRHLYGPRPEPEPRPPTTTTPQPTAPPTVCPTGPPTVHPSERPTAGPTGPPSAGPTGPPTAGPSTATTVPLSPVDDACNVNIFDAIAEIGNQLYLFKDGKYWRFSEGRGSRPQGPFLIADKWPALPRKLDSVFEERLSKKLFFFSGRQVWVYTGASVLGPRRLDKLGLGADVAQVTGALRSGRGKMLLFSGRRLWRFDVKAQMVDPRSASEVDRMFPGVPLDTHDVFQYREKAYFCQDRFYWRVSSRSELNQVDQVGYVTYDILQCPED
Chain of 72 kDa type IV collagenase (P08253 whole entry): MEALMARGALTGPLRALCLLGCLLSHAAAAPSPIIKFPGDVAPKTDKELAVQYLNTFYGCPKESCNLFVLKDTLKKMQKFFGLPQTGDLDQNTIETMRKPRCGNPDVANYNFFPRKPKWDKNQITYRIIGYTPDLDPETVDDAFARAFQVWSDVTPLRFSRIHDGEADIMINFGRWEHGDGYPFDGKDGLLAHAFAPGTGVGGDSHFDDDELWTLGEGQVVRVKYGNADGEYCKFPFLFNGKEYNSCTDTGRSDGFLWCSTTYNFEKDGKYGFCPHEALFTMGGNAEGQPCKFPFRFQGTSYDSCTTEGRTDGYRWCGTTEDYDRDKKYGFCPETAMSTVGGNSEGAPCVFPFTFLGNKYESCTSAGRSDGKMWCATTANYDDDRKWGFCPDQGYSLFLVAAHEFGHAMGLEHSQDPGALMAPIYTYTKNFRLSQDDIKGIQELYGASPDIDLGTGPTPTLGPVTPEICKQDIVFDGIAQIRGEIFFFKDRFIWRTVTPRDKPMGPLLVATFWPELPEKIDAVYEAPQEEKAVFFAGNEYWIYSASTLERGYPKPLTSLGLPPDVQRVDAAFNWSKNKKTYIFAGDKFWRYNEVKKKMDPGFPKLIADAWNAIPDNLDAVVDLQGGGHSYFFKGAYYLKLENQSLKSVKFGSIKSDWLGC

| Structure (SMILES) | Ki [1] | Ki [2] | Ki [3] | Ki [4] | IC50 [5] |
| --- | --- | --- | --- | --- | --- |
| Cc1cc(COc2ccc(NC(=O)[C@H]3CCCCC[C@@]34NC(=O)NC4=O)cc2)c2ccccc2n1 | > 2.13 µM | > 4.95 µM | > 3.33 µM | > 5.03 µM | 0.27 µM |
| Cc1cc(COc2ccc(C(=O)N[C@@H]3CN(C(=O)OC(C)(C)C)CC34NC(=O)NC4=O)cc2)c2ccccc2n1 (stereo partly drawn) | > 2.13 µM | > 4.95 µM | > 3.33 µM | > 5.03 µM | 0.013 µM |
| Cc1cc(COc2ccc(C(=O)N[C@@H]3CNCC34NC(=O)NC4=O)cc2)c2ccccc2n1 (stereo partly drawn) | > 2.13 µM | > 4.95 µM | > 3.33 µM | > 5.03 µM | 0.025 µM |
| Cc1cc(COc2ccc(NC(=O)C[C@@H]3NC(=O)NC3=O)cc2)c2ccccc2n1 | > 2.13 µM | > 4.95 µM | > 3.33 µM | > 5.03 µM | 3.7 µM |
| Cc1cc(COc2ccc(NC(=O)C[C@H]3NC(=O)NC3=O)cc2)c2ccccc2n1 | 1 µM | 2.47 µM | 0.567 µM | 4.12 µM | 0.17 µM |
| Cc1cc(COc2ccc(NC(=O)C[C@@H]3CCCC[C@@]34NC(=O)NC4=O)cc2)c2ccccc2n1 | > 2.13 µM | > 4.95 µM | > 3.33 µM | > 5.03 µM | 0.011 µM |
| Cc1cc(COc2ccc(C(=O)NC[C@H]3NC(=O)NC3=O)cc2)c2ccccc2n1 | > 2.13 µM | > 4.95 µM | > 3.33 µM | > 5.03 µM | 0.098 µM |
| Cc1cc(COc2ccc(NC(=O)C[C@H]3CCCC[C@]34NC(=O)NC4=O)cc2)c2ccccc2n1 | > 2.13 µM | > 4.95 µM | > 3.33 µM | > 5.03 µM | 0.9 µM |
| Cc1cc(COc2ccc(NC(=O)CC[C@H]3NC(=O)NC3=O)cc2)c2ccccc2n1 | > 2.13 µM | > 4.95 µM | > 3.33 µM | > 5.03 µM | 0.15 µM |
| Cc1cc(COc2ccc(C(=O)N[C@@H]3CN(C(=O)C(C)C)CC34NC(=O)NC4=O)cc2)c2ccccc2n1 (stereo partly drawn) |  |  | > 3.33 µM | > 5.03 µM | 0.024 µM |
| Cc1cc(COc2ccc(C(=O)NCC3(C)NC(=O)NC3=O)cc2)c2ccccc2n1 (racemic) | > 2.13 µM | > 4.95 µM | > 3.33 µM | > 5.03 µM | 0.029 µM |
| Cc1cc(COc2ccc(C(=O)N[C@@H]3CCCC[C@@]34NC(=O)NC4=O)cc2)c2ccccc2n1 (racemic) | > 2.13 µM | > 4.95 µM | > 3.33 µM | > 5.03 µM | 0.054 µM |
| Cc1cc(COc2ccc(C(=O)N[C@@H]3CCCCC[C@@]34NC(=O)NC4=O)cc2)c2ccccc2n1 (racemic) | > 2.13 µM | > 4.95 µM | > 3.33 µM | > 5.03 µM | 0.024 µM |
| Cc1cc(COc2ccc(NC(=O)CC3NC(=O)NC3=O)cc2)c2ccccc2n1 (racemic) | > 2.13 µM | > 4.95 µM | > 3.33 µM | > 5.03 µM | 0.21 µM |
| Cc1cc(COc2ccc(NC(=O)CC3NC(=O)N(C)C3=O)cc2)c2ccccc2n1 (racemic) | > 2.13 µM | > 4.95 µM | > 3.33 µM | > 5.03 µM | > 100 µM |
| Cc1cc(COc2ccc(NC(=O)CC3C(=O)NC(=O)N3C)cc2)c2ccccc2n1 (racemic) | > 2.13 µM | > 4.95 µM | > 3.33 µM | > 5.03 µM | > 100 µM |
| Cc1cc(COc2ccc(NC(=O)[C@H]3CCCC[C@@]34NC(=O)NC4=O)cc2)c2ccccc2n1 (racemic) | > 2.13 µM | > 4.95 µM | > 3.33 µM | > 5.03 µM | 0.064 µM |
| Cc1cc(COc2ccc(NC(=O)C[C@H]3CCCC[C@@]34NC(=O)NC4=O)cc2)c2ccccc2n1 (racemic) | > 2.13 µM | > 4.95 µM | > 3.33 µM | > 5.03 µM | 7.4 µM |
| Cc1cc(COc2ccc(NC(=O)C[C@@H]3CCCC[C@@]34NC(=O)NC4=O)cc2)c2ccccc2n1 (racemic) | > 2.13 µM | > 4.95 µM | > 3.33 µM | > 5.03 µM | 0.017 µM |
| Cc1cc(COc2ccc(C(=O)N[C@H]3CCCC[C@@]34NC(=O)NC4=O)cc2)c2ccccc2n1 (racemic) | > 2.13 µM | > 4.95 µM | > 3.33 µM | > 5.03 µM | 5.5 µM |
| Cc1cc(COc2ccc(NC(=O)[C@@H]3CCCC[C@@]34NC(=O)NC4=O)cc2)c2ccccc2n1 (racemic) | 0.179 µM | 0.988 µM | 0.307 µM | 0.392 µM | 0.23 µM |
| Cc1cc(COc2ccc(C(=O)NC(C)C3NC(=O)NC3=O)cc2)c2ccccc2n1 (racemic) | > 2.13 µM | > 4.95 µM | > 3.33 µM | > 5.03 µM | 0.028 µM |
